Source: patent US4137224A (Schering Corporation, priority 1977, dated 1979)
≈ marks a conversion by molar mass, not a printed value. Like-named read-outs stand apart in the source and are kept apart here. *1 amine or outer side, *2 acyl side, *3 side chain or, on linkers, in order; H or OH if unused. Where a SMILES comes first, the peptide text is derived from it. Bridges are numbered along the chain shown (N, C = ends). [ ]: non-standard residue; d: D form. The star is where a group is joined. NMeT = CN[CH](C(=O)O)[CH](C)O; X1 = CCCCCCCCCCCC(O)CC(=O)*; X2 = CC=C(N[*:1])C(=O)[*:2]; X3 = OCC1OC(*)C(O)C(O)C1O

Columns and labels:
[1] = test system: Candida albicans; test: In vivo activity in mice infected intravenously with Candida albicans; design: species or system male CFl mice; Candida albicans; conditions: 48 hours after infection, read-out: PD50
Method: PD50 values were determined 48 hours after infection and are as follows: […]

[2] = Toxicity (LD50), oral or subcutaneous administration; conditions: in vivo
[3] = test system: Saccharomyces cerevisiae ATCC 9763; test: Agar diffusion assay against Antibiotic 20562 standard; format: cell-based
Method: The broths are assayed against a standard solution of Antibiotic 20562 having an assigned potency of 1000 mcg/mg. The standard solution is diluted with 10% potassium phosphate buffer (pH 6.0) to make solutions having antibiotic concentrations of 3.2, 4.0, 5.0, 6.25 and 7.8 mcg/ml. The assay is performed substantially as set forth in the Federal Register, Title 21, Chapter 436.105.

[4] = test system: Trichophyton mentagrophytes; test: In vivo activity against Trichophyton mentagrophytes infection in guinea pigs; conditions: 1% in polyethylene glycol 400, topical, twice daily for ten days
Method: The skin of fifteen guinea pigs is abraided and infected with a standard culture of Trichophyton mentagrophytes. The infected animals are then separated into three groups containing five animals each. Suspensions containing 1% of the respective antibiotics in polyethylene glycol 400 are prepared. Two of the three groups are treated topically, twice daily for ten days commencing three days after infection. The third group (controls) remained untreated throughout the test. All of the animals are tested for infection by culture and observed for skin lesions for a total of 21 days.

[5] = test system: Candida albicans (Wisconsin strain); test: Topical in vivo activity against Candida albicans intravaginal infection in hamsters; design: species or system female hamsters; Candida albicans; conditions: three day treatment
Method: Using a culture of Candida albicans (Wisconsin strain), in Sabourrauds dextrose broth, infect intravaginally, five groups of six female hamsters. Forty-eight and seventy-two hours after infection, make smears of the infected animals and culture the smears. […] (96 hours after infection), make additional smears, culture and commence treatment. One group of six animals (controls) receives no treatment and, therefore, remains infected throughout the test. The remaining four groups of animals are treated with Antibiotic 20562, as 1%, 5%, 10% and 15% suspensions, respectively, the vehicle for suspension being administered on a cotton swab. At the end of the three day treatment the 1%, 5% and 10% groups are 60% cured, the 15% group is completely (100%) cured.

[6] = test system: Candida albicans; test: In vitro MIC against strains of Candida albicans in Sabouraud dextrose broth; format: cell-based
Method: Antibiotic 20562 was tested in vitro in Sabourraud dextrose broth against strains of Candida albicans, the Minimum Inhibitory Concentration (MIC) being set forth in Table IV below: […]

[7] = test system: Aeromonas sp. W-10; test: Resistance of Aeromonas sp. W-10 to antibacterial agents; format: cell-based; conditions: in words
Method: The growth and physiological characteristics of Aeromonas sp. All observations were made after seven (7) days of incubation at 28° C. Color designations are assigned according to the classification in the Color Harmony Manual (1958), Container Corporation of America. The designates G, S, C and R used herein stand for growth, surface, color and reaction, respectively.

[8] = sc, single subcutaneous dose one hour after infection
[9] = single oral dose one hour after infection
[10] = Example 2 step B, after chromatography
[11] = Example 3 steps C and D, after chromatography
[12] = isolated antibiotics, crystalline from methanol

SMILES	ED50 [1, 8]	ED50 [1, 9]	LD50 ([2]; po)	LD50 ([2]; sc)	assay (potency) [3, 10]	assay (potency) [3, 11]	assay (potency) [3, 12]	Days to become negative, Culture [4]	Days to become negative, Lesion [4]	other results
CC=C(NC(=O)CC(O)CCCCCCCCCCC)C(=O)NC1C(=O)NC(C(C)O)C(=O)NC(Cc2ccc(O)cc2)C(=O)NC(=CC)C(=O)NC(CCC(N)=O)C(=O)NCC(=O)N(C)C(C(C)OC2OC(CO)C(O)C(O)C2O)C(=O)NC(Cc2cnc[nH]2)C(=O)OC1C (centres unmarked) [Antibiotic 20562] (X1-[X2]TTY[X2]QG[NMeT](X3)H; ester 2-C; configuration not given here)	4 mg/kg	25 mg/kg	800 mg/kg	600 mg/kg	800 µg/mg	1000 µg/mg	about 1000 mcg/mg	5.8 days	9.0 days	cured ([5]; 1% suspension): 60%; cured ([5]; 5% suspension): 60%; cured ([5]; 10% suspension): 60%; cured ([5]; 15% suspension): 100%; MIC ([6]; Candida albicans, strain Burke, read-out: MIC): 0.075 µg/mL (≈ 0.0552 µM); MIC ([6]; strain 29): 0.075 µg/mL (≈ 0.0552 µM); MIC ([6]; strain Bevan): 0.075 µg/mL (≈ 0.0552 µM); MIC ([6]; strain Collins): 0.075 µg/mL (≈ 0.0552 µM); MIC ([6]; strain Fix): 0.075 µg/mL (≈ 0.0552 µM); MIC ([6]; strain Lush): 0.075 µg/mL (≈ 0.0552 µM); MIC ([6]; strain Merkel): 0.075 µg/mL (≈ 0.0552 µM); MIC ([6]; strain Newcomb): 0.075 µg/mL (≈ 0.0552 µM); MIC ([6]; strain No. 1): 0.075 µg/mL (≈ 0.0552 µM); MIC ([6]; strain Raub): 0.075 µg/mL (≈ 0.0552 µM); MIC ([6]; strain Sperk): 0.075 µg/mL (≈ 0.0552 µM); MIC ([6]; strain Wisconsin): 0.075 µg/mL (≈ 0.0552 µM)
CC(C)c1nc2nc(N)nc(N)c2nc1C(C)C [0/129, 2,4-diamino-6,7-diisopropylpteridine]	–	–	–	–	–	–	–	–	–	sensitivity of Aeromonas sp. W-10 to the vibriostatic compound [7]: insensitive
CC=C(NC(=O)CC(O)CCCCCCCCCCC)C(=O)NC1C(=O)NC(C(C)O)C(=O)NC(Cc2ccc(O)cc2)C(=O)NC(=CC)C(=O)NC(CCC(N)=O)C(=O)NCC(=O)N(C)C(C(C)O)C(=O)NC(Cc2cnc[nH]2)C(=O)OC1C (centres unmarked) [Antibiotic 20561] (X1-[X2]TTY[X2]QG[NMeT]H; ester 2-C; configuration not given here)	4 mg/kg	25 mg/kg	1000 mg/kg	> 1000 mg/kg	800 µg/mg	800 µg/mg	about 800 mcg/mg	4.8 days	6.3 days	–
